Experimental findings from patent publication EP0329902A1, “Use of quinolizinone and quinolizine derivatives in the manufacture of medicaments for the treatment of psychosis” (MERRELL DOW PHARMACEUTICALS INC., priority 1988, dated 1989) are described below.

The test system of this assay is Von Bezold-Jarisch Reflex induced by 5-HT. As to the kind of experiment: Von Bezold-Jarisch Reflex induced by 5-HT injected intravenously. It is filed as in vivo. The conditions noted are these: rat. An excerpt: The activity of these compounds agianst 5-HT can be assessed in vivo by measurement of the effect of the compound on the Von Bezold-Jarisch Reflex induced by 5-HT injected intravenously into the rat (see Paintal A.S., Physiol. Rev. 53, 159-227, 1973; J.R. Fozard, Naunyn-Schmiedeberg's Arch. Pharmacol., 326, 1984, 36-44). The transient cardiac slowing arises from an increased afferent vagus activity arising from stimulation by 5-HT of sensory afferent fibres in and around the heart.

The mark [1] stands for this setting: doses of 0.01-0.1 mg/kg given intravenously.
The mark [2] stands for this setting: doses of 0.25-1 mg/kg given orally.

Structures can show the parent of a compound that is named as a salt.

In the case of `Cc1cc(C)cc(C(=O)OC2CC3CC4CC(C2)N3CC4=O)c1` (stereo not drawn) [endo-8-(3,5-dimethylbenzoyloxy)hexahydro-2,6-methano-2H-quinolizin-3(4H)-one], the “suppression of the Von Bezold-Jarisch Reflex response” value runs as follows: under setting [1], “suppressed the response dose-dependently”; under setting [2], “suppressed the response dose-dependently”.

For the compound `O=C(OC1CC2CC3CC(C1)N2CC3=O)c1c[nH]c2ccccc12` (stereo not drawn) [endo-hexahydro-8-(3-indolylcarbonyloxy)-2,6-methano-2H-quinolizin-3(4H)one hydrochloride], the “suppression of the Von Bezold-Jarisch Reflex response” value is, setting by setting: under setting [1], “suppressed the response dose-dependently”; under setting [2], “suppressed the response dose-dependently”.
